Entries after “also recorded” stand apart in the source; their conditions may differ.
Key:
[1] = tested on: C57B/L6 mice exposed to bleomycin; experiment: Example 1: prophylactic treatment of mice exposed to bleomycin (IPF model); assay type: in vivo, mouse; details: OX1, OX3, Nintedanib 30 mg/kg QD, Pirfenidone 100 mg/kg BID
From the text: 4-(5-phenyl-3-{3-[3-(4-trifluoromethyl-phenyl)-ureido]-propyl}-pyrazol-1-yl)-benzenesulfonamide (PTUPB) [termed OX1] was compared to Pirfenidone, Nintedanib, and GSK225629415 [termed OX3] for treatment of IPF using an established model for IPF treating, which is prophylactic treatment of mice exposed to the chemotherapeutic agent bleomycin. […] Pirfenidone and Nintedanib are standard of care for the treatment of idiopathic pulmonary fibrosis and served as reference compounds in the experiment.
C57B/L6 mice were used in the experiments. When used, Bleomycin was administered intra-oropharyngeally, 1.5 U/kg, QD per established protocol. The test articles were dosed via oral gavage in 200 μL/day vehicle. The doses and formulations of test articles were selected based on the literature describing the lowest doses capable of eliciting pharmacological action.
Animals were dosed with the test articles (or vehicle) starting at day −1 to day 20. On day 1, daily doses of Bleomycin commenced in all but group 1 (negative control) which received the vehicle. On day 21, all animals were weighed and sacrificed. After lungs and bronco-alveolar lavage fluid (BALF) were harvested, they were prepared according to standard procedures for further analysis and histology. All animals were assessed twice a week for body weight and overall appearance. Efficacy endpoints measured in this study included lung weight, total leukocytes, and histology as determined by Mason's Trichrome stain and scored using a modified Ashcroft score.
The following parameters were measured in bronchoalveolar fluid (BALF): 1) soluble collagen and 2) differential leukocyte counts for different leukocyte populations.
After weighing and removal of BALF from the lungs, they were inflated and fixed using 10% neutral buffered formalin for histopathology analysis. Fifty-four formalin-fixed lung samples from mice were submitted to HistoTox Labs and were processed routinely. Two slides from each block were sectioned and stained with hematoxylin and eosin (H&E) or Masson's trichrome. Glass slides were evaluated with light microscopy by a board-certified veterinary pathologist. Lung sections were scored according to the modified Ashcroft scale.

COX-2 = target: T1, COX-2 (Homo sapiens, UniProt P35354); experiment: COX-2 inhibition IC50, COX Fluorescent Inhibitor Screening Assay; assay type: biochemical
T1 construct: purchased Cayman Chemical 700100
T1 sequence (P35354 18-604): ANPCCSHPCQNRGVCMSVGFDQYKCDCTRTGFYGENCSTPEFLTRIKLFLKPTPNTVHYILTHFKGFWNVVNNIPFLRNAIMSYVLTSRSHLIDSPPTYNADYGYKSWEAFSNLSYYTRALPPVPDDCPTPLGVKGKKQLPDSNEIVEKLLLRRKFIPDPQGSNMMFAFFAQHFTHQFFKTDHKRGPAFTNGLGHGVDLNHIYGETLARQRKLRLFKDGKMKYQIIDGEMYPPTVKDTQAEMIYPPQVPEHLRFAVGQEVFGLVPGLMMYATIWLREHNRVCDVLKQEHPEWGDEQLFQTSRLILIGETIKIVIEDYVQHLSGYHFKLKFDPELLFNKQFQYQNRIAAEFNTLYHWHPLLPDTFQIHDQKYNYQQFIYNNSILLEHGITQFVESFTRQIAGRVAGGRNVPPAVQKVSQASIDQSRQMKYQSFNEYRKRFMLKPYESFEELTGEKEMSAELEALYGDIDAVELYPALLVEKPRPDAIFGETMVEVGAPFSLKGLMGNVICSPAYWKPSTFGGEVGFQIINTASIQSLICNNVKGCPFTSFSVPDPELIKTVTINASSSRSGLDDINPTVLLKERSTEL
Description: A COX Fluorescent Inhibitor Screening Assay Kit (catalog number 700100, Cayman Chemical, Ann Arbor, Mich.) is useful for assaying the ability of the compounds provided herein to inhibit ovine COX-1 and human recombinant COX-2 (% inhibition at 100 μM and IC50 values (M), respectively). Stock solutions of test compounds are dissolved in a minimum volume of DMSO. 10 μl of various concentrations of the test compound solutions, e.g., [I]final between 0.01 and 100 μM, are added to a series of supplied reaction buffer solutions (150 μl, 100 mM Tris-HCl, pH 8.0) with either COX-1 or COX-2 (10 μl) enzyme in the presence of Heme (10 μl) and a fluorometric substrate (10 μl). The reactions are initiated by quickly adding 10 μl of arachidonic acid solution and then incubating the system for two minutes at room temperature. Fluorescence of resorufin, which is produced by the reaction between PGG2 and fluorometric substrate, ADHP (10-acetyl-3,7-dihydroxyphenoxazine), is analyzed with an excitation wavelength of 535 nm and an emission wavelength of 590 nm. The intensity of this fluorescence is proportional to the amount of resorufin, which is proportional to the amount of PGG2 present in the well during the incubation. Percent inhibition is calculated by comparison from the 100% initial activity sample value (no inhibitor).

human sEH = target: T2, human sEH (Homo sapiens, UniProt P34913); experiment: sEH inhibition IC50, fluorescent-based assay with purified recombinant sEH; assay type: biochemical; details: in vitro, relative to OX1
T2 sequence (P34913 1-555): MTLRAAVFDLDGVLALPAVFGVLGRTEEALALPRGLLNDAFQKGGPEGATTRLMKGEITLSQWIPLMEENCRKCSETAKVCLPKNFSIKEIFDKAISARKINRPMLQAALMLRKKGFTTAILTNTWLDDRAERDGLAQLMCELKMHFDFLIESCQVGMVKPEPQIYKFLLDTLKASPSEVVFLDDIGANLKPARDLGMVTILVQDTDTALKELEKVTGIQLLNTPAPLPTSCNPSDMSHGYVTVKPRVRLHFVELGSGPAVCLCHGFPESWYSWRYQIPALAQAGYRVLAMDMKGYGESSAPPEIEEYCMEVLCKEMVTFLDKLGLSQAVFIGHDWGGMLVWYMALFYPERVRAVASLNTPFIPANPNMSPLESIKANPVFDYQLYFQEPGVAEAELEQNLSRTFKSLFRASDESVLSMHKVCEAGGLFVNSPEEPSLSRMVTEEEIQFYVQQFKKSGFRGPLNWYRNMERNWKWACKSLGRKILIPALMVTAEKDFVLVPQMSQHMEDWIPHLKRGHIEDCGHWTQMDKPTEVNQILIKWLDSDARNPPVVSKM
Description: sEH inhibition IC50 values for the compounds presented herein can be assayed by a recombinant affinity assay using purified sEHs, from human, mouse or rat, in a fluorescent-based assay. In such an assay, enzymes, e.g., ˜1 nM human sEH, are incubated with a potential inhibitors for 5 min in 25 mM Bis-Tris/HCl buffer (200 μL; pH 7.0) at 30° C. before a substrate, e.g., cyano(2-methoxynaphthalen-6-yl)methyl trans-(3-phenyl-oxyran-2-yl)methyl carbonate, (CMNPC) is added ([S]final=5 μM).

[2] = day 21, compared to vehicle (Group 2)

CNc1nc(C)nc(N[C@H]2CCC[C@@H](C(=O)NCc3ccc(C#N)cc3C(F)(F)F)C2)n1 [OX3]
body weight course over 21 days ([1]; bleomycin mice, oral gavage day -1 to 20): lost the least weight; also recorded: sustained weight loss | neutrophil migration into BALF ([1]; day 21, oral): somewhat effective | number of lymphocytes in BALF ([1]; day 21, oral): trend increasingly lower | number of macrophages in BALF ([1]; day 21, oral): more macrophages | total cell (leukocyte) count in BALF ([1]; day 21, oral): did not demonstrate the same level of reduction | increased collagen (fibrosis) score, trichrome [1, 2]: slightly lower | mean Ashcroft score (lung histology) [1, 2]: slightly lower | mean score for mixed peribronchiolar/perivascular inflammation [1, 2]: lower | IC50 (COX-2): > 1000 nM | times less potent on COX-2 than OX1 (COX-2; in vitro, relative to OX1): at least 10 times | fold more potent against sEH than OX1 (human sEH): roughly 75 fold

Source: patent US20220218667A1, “DUAL INHIBITORS OF SOLUBLE EPOXIDE HYDROLASE AND METHODS OF USE THEREOF” (OROX Biosciences, Inc., priority 2019, published 2022)
